Data on four compounds can be found in ChEMBL document CHEMBL4842346, “Improving the metabolic stability of antifungal compounds based on a scaffold hopping strategy: Design, synthesis, and structure-activity relationship studies of dihydrooxazole derivatives” (Eur J Med Chem, 2021).

≈ marks a conversion by molar mass, not a printed value.

Data set [1] relates to Candida albicans. Kind of data set: Antifungal activity against Candida albicans SC5314 assessed as inhibition of fungal growth by NCCLS protocol based method. Format: functional.
The subject of the next data set is Aspergillus fumigatus. As to the kind of experiment: Antifungal activity against Aspergillus fumigatus CGMCC3.7795 assessed as inhibition of fungal growth by NCCLS protocol based method. Format: functional.
Data set [2] relates to Candida albicans. Kind of data set: Antifungal activity against Candida albicans CPCC400523 assessed as inhibition of fungal growth by NCCLS protocol based method. Format: functional.
A further data set relates to Cryptococcus neoformans. Kind of data set: Antifungal activity against Cryptococcus neoformans CGMCC2.3161 assessed as inhibition of fungal growth by NCCLS protocol based method. Format: functional.
The nature of data set [3]: Metabolic stability in human liver microsomes assessed as half life at 100 uM in the presence of NADPH measured upto 60 mins by LC-MS/MS analysis. Format: ADME, Microsome. A general note: Liver microsomes are a subcellular fraction often used to study metabolism.
The subject of data set [4] is Candida albicans. As to the kind of experiment: Antifungal activity against Candida albicans GIM2.194 assessed as inhibition of fungal growth by NCCLS protocol based method. Format: functional.
Data set [5] relates to Candida albicans. Kind of data set: Antifungal activity against fluconazole resistant Candida albicans CaR assessed as inhibition of fungal growth by NCCLS protocol based method. Type of data set: functional.
Another data set has as its system Candida tropicalis. As to the kind of experiment: Antifungal activity against Candida tropicalis GIM2.183 assessed as inhibition of fungal growth by NCCLS protocol based method. Type of data set: functional.
The subject of data set [6] is Candida albicans. Kind of data set: Antifungal activity against fluconazole and itraconazole resistant Candida albicans 17# assessed as inhibition of fungal growth by NCCLS protocol based method. Type of data set: functional.
Another data set relates to Candida parapsilosis. As to the kind of experiment: Antifungal activity against Candida parapsilosis GIM2.190 assessed as inhibition of fungal growth by NCCLS protocol based method. Type of data set: functional. The settings on record: Lodderomyces parapsilosis.
For a further data set, the system named is Pichia kudriavzevii. As to the kind of experiment: Antifungal activity against Candida krusei GIM2.1 assessed as inhibition of fungal growth by NCCLS protocol based method. Format: functional.
The nature of data set [7]: Intrinsic hepatic clearance in human liver microsomes at 100 uM in the presence of NADPH measured up to 60 mins by LC-MS/MS analysis. Format: ADME, Microsome. As to conditions: 1 h.
Data set [8] concerns the target T1, Lanosterol 14-alpha demethylase (Candida albicans (strain SC5314 / ATCC MYA-2876) (Yeast), UniProt P10613). As to the kind of experiment: Inhibition of Candida albicans CYP51 assessed as unknown sterol level at 0.015 ug/ml measured after 18 hrs by GC-MS analysis relative to control. The arrangement: scale not given: the % may be the effect or the level left. The settings on record: at 0.015 µg/mL.

A short description of data set [9]: Intrinsic microsomal clearance in human liver microsomes at 100 uM in the presence of NADPH measured up to 60 mins by LC-MS/MS analysis. The settings on record: read-out: CLH. Type of data set: ADME, Microsome.
A short description of data set [10]: Metabolic stability in human plasma assessed as parent compound remaining at 100 uM measured after 120 mins by LC-MS/MS analysis. The settings on record: 2 h. Type of data set: ADME, cell-free.
A short description of data set [11]: Metabolic stability in human plasma assessed as half life at 100 uM measured after 60 mins by LC-MS/MS analysis. Type of data set: ADME, cell-free.
In a further data set the target is T2, Cytochrome P450 1A2 (Homo sapiens, UniProt P05177).
T2 sequence (P05177 whole entry): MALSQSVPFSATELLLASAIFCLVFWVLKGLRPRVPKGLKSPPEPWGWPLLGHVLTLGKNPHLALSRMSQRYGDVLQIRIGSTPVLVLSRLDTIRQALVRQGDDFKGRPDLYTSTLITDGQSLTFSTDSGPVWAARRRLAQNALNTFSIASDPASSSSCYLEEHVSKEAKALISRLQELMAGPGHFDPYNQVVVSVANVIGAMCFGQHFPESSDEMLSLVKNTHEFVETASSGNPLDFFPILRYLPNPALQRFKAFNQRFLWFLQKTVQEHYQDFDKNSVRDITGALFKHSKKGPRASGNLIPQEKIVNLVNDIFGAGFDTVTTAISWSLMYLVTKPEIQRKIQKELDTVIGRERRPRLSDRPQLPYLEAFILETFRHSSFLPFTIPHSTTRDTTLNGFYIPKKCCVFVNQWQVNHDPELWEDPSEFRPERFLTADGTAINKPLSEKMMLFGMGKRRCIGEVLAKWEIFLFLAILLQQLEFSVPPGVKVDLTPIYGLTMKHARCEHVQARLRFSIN
As to the kind of experiment: Inhibition of CYP1A2 in human liver microsome incubated for 10 mins in the presence of NADPH by LC-MS/MS analysis. Format: ADME, microsomes.

Data set [12] deals with T1, Lanosterol 14-alpha demethylase. As to the kind of experiment: Inhibition of Candida albicans CYP51 assessed as eburicol level at 0.015 ug/ml measured after 18 hrs by GC-MS analysis relative to control. The arrangement: scale not given: the % may be the effect or the level left. The settings on record: at 0.015 µg/mL.
A further data set deals with Cytochrome P450 2D6 (Homo sapiens, UniProt P10635). As to the kind of experiment: Inhibition of CYP2D6 in human liver microsome incubated for 10 mins in the presence of NADPH by LC-MS/MS analysis. Format: ADME, microsomes.
A further data set addresses Cytochrome P450 2C19 (Homo sapiens, UniProt P33261). Kind of data set: Inhibition of CYP2C19 in human liver microsome incubated for 10 mins in the presence of NADPH by LC-MS/MS analysis. Type of data set: ADME, microsomes.
Data set [13] in a line: Metabolic stability in human plasma assessed as parent compound remaining at 100 uM measured after 60 mins by LC-MS/MS analysis. Format: ADME, cell-free. The settings on record: read-out: Stabilty.
Data set [14] can be described thus: Metabolic stability in human liver microsomes assessed as compound remaining at 100 uM measured after 60 mins in the absence of NADPH by LC-MS/MS analysis. Format: ADME, Microsome. As to conditions: read-out: Stabilty.
In a further data set the target is Cytochrome P450 3A4 (Homo sapiens, UniProt P08684). As to the kind of experiment: Inhibition of CYP3A4 in human liver microsome incubated for 10 mins in the presence of NADPH by LC-MS/MS analysis. Format: ADME, microsomes.
The target in data set [15] is T1, Lanosterol 14-alpha demethylase. Kind of data set: Inhibition of Candida albicans CYP51 assessed as lanosterol level at 0.015 ug/ml measured after 18 hrs by GC-MS analysis relative to control. As to conditions: at 0.015 µg/mL. The arrangement: scale not given: the % may be the effect or the level left.
The target is the same in data set [16]. As to the kind of experiment: Inhibition of Candida albicans CYP51 assessed as 14alpha-methylergosta-8,24(28)-dien3beta-6alpha-diol level at 0.015 ug/ml measured after 18 hrs by GC-MS analysis relative to control. Also noted: scale not given: the % may be the effect or the level left. As to conditions: at 0.015 µg/mL.
Data set [17] is described as follows: Metabolic stability in human liver microsomes assessed as compound remaining at 100 uM measured after 60 mins in the presence of NADPH by LC-MS/MS analysis. Type of data set: ADME, Microsome. The settings on record: read-out: Stabilty.
Data set [18] addresses T1, Lanosterol 14-alpha demethylase. Kind of data set: Inhibition of Candida albicans CYP51 assessed as ergosterol level at 0.015 ug/ml measured after 18 hrs by GC-MS analysis relative to control. The settings on record: at 0.015 µg/mL. The arrangement: scale not given: the % may be the effect or the level left.
The next data set concerns the target Cytochrome P450 2C9 (Homo sapiens, UniProt P11712). As to the kind of experiment: Inhibition of CYP2C9 in human liver microsome incubated for 10 mins in the presence of NADPH by LC-MS/MS analysis. Format: ADME, microsomes.

T1 sequence (P10613 whole entry): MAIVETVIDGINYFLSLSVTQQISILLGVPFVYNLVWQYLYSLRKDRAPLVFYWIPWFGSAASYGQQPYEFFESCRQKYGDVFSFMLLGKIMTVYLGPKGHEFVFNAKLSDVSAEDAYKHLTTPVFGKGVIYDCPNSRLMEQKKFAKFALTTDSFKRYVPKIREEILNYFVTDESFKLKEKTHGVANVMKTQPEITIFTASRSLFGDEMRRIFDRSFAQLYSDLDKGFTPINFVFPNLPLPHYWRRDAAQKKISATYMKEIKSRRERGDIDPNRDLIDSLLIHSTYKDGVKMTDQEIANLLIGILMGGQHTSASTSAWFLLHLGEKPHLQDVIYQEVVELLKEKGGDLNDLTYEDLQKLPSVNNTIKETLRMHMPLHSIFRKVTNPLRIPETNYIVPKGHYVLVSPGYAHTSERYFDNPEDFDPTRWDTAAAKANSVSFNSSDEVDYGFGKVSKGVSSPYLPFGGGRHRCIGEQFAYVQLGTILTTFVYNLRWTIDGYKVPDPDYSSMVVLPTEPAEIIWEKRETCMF
Chain of Cytochrome P450 3A4 (P08684 whole entry): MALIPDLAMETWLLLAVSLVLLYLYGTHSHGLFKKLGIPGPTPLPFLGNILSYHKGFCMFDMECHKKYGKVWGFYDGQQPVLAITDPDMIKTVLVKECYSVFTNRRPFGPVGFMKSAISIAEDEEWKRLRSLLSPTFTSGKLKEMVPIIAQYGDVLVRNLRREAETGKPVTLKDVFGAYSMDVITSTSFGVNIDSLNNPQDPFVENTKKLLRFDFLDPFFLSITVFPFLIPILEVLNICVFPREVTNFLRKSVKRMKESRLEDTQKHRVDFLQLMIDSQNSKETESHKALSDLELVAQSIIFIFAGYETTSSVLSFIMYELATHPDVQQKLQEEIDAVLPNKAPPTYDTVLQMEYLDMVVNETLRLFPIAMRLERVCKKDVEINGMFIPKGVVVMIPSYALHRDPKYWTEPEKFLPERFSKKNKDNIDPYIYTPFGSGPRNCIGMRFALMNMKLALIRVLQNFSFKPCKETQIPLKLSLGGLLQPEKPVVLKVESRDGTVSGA
Chain of Cytochrome P450 2D6 (P10635 whole entry): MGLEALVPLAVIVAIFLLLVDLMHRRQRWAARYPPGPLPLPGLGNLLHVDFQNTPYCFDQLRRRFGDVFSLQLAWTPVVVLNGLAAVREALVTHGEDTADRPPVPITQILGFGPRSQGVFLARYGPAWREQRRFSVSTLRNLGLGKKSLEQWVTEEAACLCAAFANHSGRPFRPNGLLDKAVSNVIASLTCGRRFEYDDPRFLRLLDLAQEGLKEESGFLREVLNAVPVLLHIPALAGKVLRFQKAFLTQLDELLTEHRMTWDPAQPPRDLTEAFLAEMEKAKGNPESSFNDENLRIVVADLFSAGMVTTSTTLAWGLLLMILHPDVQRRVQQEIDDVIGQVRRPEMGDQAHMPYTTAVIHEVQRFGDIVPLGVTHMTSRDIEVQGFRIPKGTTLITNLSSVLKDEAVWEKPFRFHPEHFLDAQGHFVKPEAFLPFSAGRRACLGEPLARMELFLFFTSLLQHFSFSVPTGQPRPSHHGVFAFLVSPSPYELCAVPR
Chain of Cytochrome P450 2C9 (P11712 whole entry): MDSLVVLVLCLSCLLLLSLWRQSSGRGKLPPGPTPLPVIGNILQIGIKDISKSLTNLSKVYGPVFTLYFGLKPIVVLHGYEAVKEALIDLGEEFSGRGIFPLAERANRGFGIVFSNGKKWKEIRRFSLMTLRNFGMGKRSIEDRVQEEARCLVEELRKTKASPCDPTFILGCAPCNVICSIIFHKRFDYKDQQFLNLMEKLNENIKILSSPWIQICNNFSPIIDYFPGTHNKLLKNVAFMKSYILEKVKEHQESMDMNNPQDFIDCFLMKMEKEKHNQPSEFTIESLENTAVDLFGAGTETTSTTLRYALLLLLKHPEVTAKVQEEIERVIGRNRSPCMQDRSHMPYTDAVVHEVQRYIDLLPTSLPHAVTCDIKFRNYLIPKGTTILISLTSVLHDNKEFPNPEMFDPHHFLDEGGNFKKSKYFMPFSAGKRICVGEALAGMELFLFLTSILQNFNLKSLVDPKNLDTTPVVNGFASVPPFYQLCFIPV
Chain of Cytochrome P450 2C19 (P33261 whole entry): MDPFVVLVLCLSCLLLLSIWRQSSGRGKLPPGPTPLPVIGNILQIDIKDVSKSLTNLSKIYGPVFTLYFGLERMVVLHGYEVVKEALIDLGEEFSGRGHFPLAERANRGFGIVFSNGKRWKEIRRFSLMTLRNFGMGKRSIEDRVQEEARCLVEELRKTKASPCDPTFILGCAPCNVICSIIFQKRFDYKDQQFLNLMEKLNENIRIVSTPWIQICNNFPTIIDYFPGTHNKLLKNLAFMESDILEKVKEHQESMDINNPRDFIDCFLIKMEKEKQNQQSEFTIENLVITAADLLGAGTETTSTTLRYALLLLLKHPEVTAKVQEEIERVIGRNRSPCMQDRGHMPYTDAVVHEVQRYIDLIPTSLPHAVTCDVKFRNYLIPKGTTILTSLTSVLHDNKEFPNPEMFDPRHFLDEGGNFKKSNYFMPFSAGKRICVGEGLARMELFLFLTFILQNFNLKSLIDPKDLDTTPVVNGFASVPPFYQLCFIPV

Broadly, the MIC is the least concentration at which growth counts as inhibited. Usually half-life stands for the time needed for the level to fall by half in the phase considered. With `c1ccc(-c2ccc(C3=N[C@@H](Cn4ccnc4)CO3)cc2)cc1`, the minimal inhibitory concentration (MIC) in the data set with Candida albicans [1] is 1 µg/mL (≈ 3.3 µM); with Aspergillus fumigatus, 1 µg/mL (≈ 3.3 µM); in the data set on Candida albicans [2] it was 8 µg/mL (≈ 26.4 µM); in the data set on Cryptococcus neoformans it was > 64 µg/mL. Further, in data set [3], the half-life at 100 µM was 23.2 min.
`CC[C@H](C)[C@@H](Cn1ccnc1)NC(=O)c1ccc(-c2ccccc2)cc1F`: the MIC with Candida albicans [1] is < 0.03 µg/mL; in the data set on Aspergillus fumigatus it was 2 µg/mL (≈ 5.47 µM); in the data set on Candida albicans [2], < 0.03 µg/mL; in the data set on Cryptococcus neoformans it was 1 µg/mL (≈ 2.74 µM). Further, the half-life at 100 µM in [3] is 3.6 min.
On to `Fc1ccc(C2(Cn3cncn3)COC(c3ccc(-c4ccccc4F)cc3)=N2)c(F)c1` (centres undefined), for which the MIC in the data set with Candida albicans [1] is < 0.03 µg/mL; with Candida albicans [4] it was 0.06 µg/mL (≈ 0.138 µM); in the data set on Candida albicans [5], 0.5 µg/mL (≈ 1.15 µM); in the data set on Candida tropicalis it was 0.06 µg/mL (≈ 0.138 µM); with Aspergillus fumigatus, > 64 µg/mL; in the data set with Candida albicans [6], > 64 µg/mL. Also, the values for the MIC in the data set on Candida parapsilosis and in the data set with Pichia kudriavzevii were 4 µg/mL (≈ 9.21 µM) and 0.25 µg/mL (≈ 0.575 µM), respectively.
What is called IC50 is the concentration at which inhibition is half-maximal. Turning to `Fc1ccc(C2(Cn3cncn3)COC(c3ccc(-c4cccc(F)c4)cc3)=N2)cc1` (centres undefined), the CLH in data set [7] stood at 1.27 mL/h/kg. Further, the MIC is < 0.03 µg/mL in the data set on Candida albicans [1]; < 0.03 µg/mL in the data set on Candida albicans [4]; 0.5 µg/mL (≈ 1.2 µM) in the data set with Candida albicans [5]; 0.06 µg/mL (≈ 0.144 µM) with Candida tropicalis; > 64 µg/mL with Aspergillus fumigatus; > 64 µg/mL with Candida albicans [6]. The minimal inhibitory concentration (MIC) with Candida parapsilosis came out at 8 µg/mL (≈ 19.2 µM); with Pichia kudriavzevii, 0.25 µg/mL (≈ 0.6 µM). Besides, the Activity was found to be 1.73% in data set [8]; 7.04% in data set [12]; 18.96% in [15]; 34.14% in data set [16]; 35.8% in data set [18]. In [9], the microsomal CLint at 100 µM came out at 23.5 µL/min/mg. For the same compound, the Stabilty in data set [10] is 115.8%. For the same compound, the half-life at 100 µM in [11] is > 288 min; in [3], 59.1 min. In addition, the IC50 at Cytochrome P450 1A2 came out at 21.2 µM; at Cytochrome P450 2D6, 40.1 µM; on Cytochrome P450 2C19 it was 1.3 µM; on Cytochrome P450 3A4 it was 15.2 µM; on Cytochrome P450 2C9 it was 3.8 µM. Further, the remaining at 1 h, 100 µM in data set [13] came out at 98.7%; in data set [14], 79.9%; in [17], 47.1%.
